# From the supplement of paper PMC10307832
# What was measured:
# Experiment in all cases: relative viability (nuclei count vs DMSO), 5 days (fraction); higher = more cells survive
# JZL-184 + Trametinib = compound: C1CN(CCC1C(C2=CC3=C(C=C2)OCO3)(C4=CC5=C(C=C4)OCO5)O)C(=O)OC6=CC=C(C=C6)[N+](=O)[O-] [JZL-184] + CC(=O)Nc1cccc(-n2c(=O)n(C3CC3)c(=O)c3c(Nc4ccc(I)cc4F)n(C)c(=O)c(C)c32)c1 [Trametinib] (partner 0.02 µM)
# Procedure, shortened: (§1)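 Lung cancer cell lines, seeded in 1536-well plates, were treated the following day by pin tool with a single drug or with five library-drug doses (not always all listed) in √10 steps on top of a fixed anchor-drug dose. Cells were fixed and nuclei stained in one step after 5 days, and nuclei were counted. Relative viability is the nuclei count for treated wells divided by that for vehicle wells, reported as medians of duplicate plates.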
# JZL-184 + Navitoclax = compound: C1CN(CCC1C(C2=CC3=C(C=C2)OCO3)(C4=CC5=C(C=C4)OCO5)O)C(=O)OC6=CC=C(C=C6)[N+](=O)[O-] [JZL-184] + CC1(C)CCC(c2ccc(Cl)cc2)=C(CN2CCN(c3ccc(C(=O)NS(=O)(=O)c4ccc(N[C@H](CCN5CCOCC5)CSc5ccccc5)c(S(=O)(=O)C(F)(F)F)c4)cc3)CC2)C1 [Navitoclax] (partner 0.5 µM)
# Procedure, shortened: as §1
# JZL-184 + OSI-027 = compound: C1CN(CCC1C(C2=CC3=C(C=C2)OCO3)(C4=CC5=C(C=C4)OCO5)O)C(=O)OC6=CC=C(C=C6)[N+](=O)[O-] [JZL-184] + COc1cccc2cc(-c3nc([C@H]4CC[C@H](C(=O)O)CC4)n4ncnc(N)c34)[nH]c12 [OSI-027] (partner 0.5 µM)
# Procedure, shortened: as §1
# JZL-184 + Tozasertib = compound: C1CN(CCC1C(C2=CC3=C(C=C2)OCO3)(C4=CC5=C(C=C4)OCO5)O)C(=O)OC6=CC=C(C=C6)[N+](=O)[O-] [JZL-184] + Cc1cc(Nc2cc(N3CCN(C)CC3)nc(Sc3ccc(NC(=O)C4CC4)cc3)n2)n[nH]1 [Tozasertib] (partner 0.1 µM)
# Procedure, shortened: as §1
# JZL-184 + Olaparib = compound: C1CN(CCC1C(C2=CC3=C(C=C2)OCO3)(C4=CC5=C(C=C4)OCO5)O)C(=O)OC6=CC=C(C=C6)[N+](=O)[O-] [JZL-184] + O=C(c1cc(Cc2n[nH]c(=O)c3ccccc23)ccc1F)N1CCN(C(=O)C2CC2)CC1 [Olaparib] (partner 8 µM)
# Procedure, shortened: as §1
Cell Line,relative viability (JZL-184 + Trametinib; first compound 0.04 µM),relative viability (JZL-184 + Trametinib; first compound 0.4 µM),relative viability (JZL-184 + Trametinib; first compound 1.265 µM),relative viability (JZL-184 + Trametinib; first compound 4 µM),relative viability (JZL-184 + Navitoclax; first compound 0.04 µM),relative viability (JZL-184 + Navitoclax; first compound 0.4 µM),relative viability (JZL-184 + Navitoclax; first compound 1.265 µM),relative viability (JZL-184 + Navitoclax; first compound 4 µM),relative viability (JZL-184 + OSI-027; first compound 0.04 µM),relative viability (JZL-184 + OSI-027; first compound 0.4 µM),relative viability (JZL-184 + OSI-027; first compound 1.265 µM),relative viability (JZL-184 + OSI-027; first compound 4 µM),relative viability (JZL-184 + Tozasertib; first compound 0.04 µM),relative viability (JZL-184 + Tozasertib; first compound 0.4 µM),relative viability (JZL-184 + Tozasertib; first compound 1.265 µM),relative viability (JZL-184 + Tozasertib; first compound 4 µM),relative viability (JZL-184 + Olaparib; first compound 0.04 µM),relative viability (JZL-184 + Olaparib; first compound 0.4 µM),relative viability (JZL-184 + Olaparib; first compound 1.265 µM),relative viability (JZL-184 + Olaparib; first compound 4 µM)
PC-14,1.1,0.693,0.738,0.635,0.998,1,0.964,0.992,1.07,0.831,0.853,0.72,0.647,0.623,0.631,0.485,0.251,0.223,0.233,0.219
RERF-LC-KJ,0.952,0.868,0.876,0.781,1.01,1.1,0.951,0.825,0.58,0.625,0.562,0.478,0.499,0.37,0.453,0.436,0.976,0.911,0.895,0.905
SK-LU-1,0.448,0.402,0.653,0.46,1.36,0.866,0.915,0.823,0.405,0.341,0.423,0.358,0.372,0.328,0.329,0.338,0.593,0.408,0.463,0.642
SK-MES-1,0.623,0.524,0.609,0.5,1.35,1.14,1.12,1.17,0.597,0.625,0.673,0.535,1.04,0.878,0.908,0.706,0.792,0.698,0.765,0.662
SW 1573,0.602,0.564,0.589,0.445,0.913,0.912,1.21,1.16,0.733,0.548,0.591,0.525,0.175,0.143,0.229,0.176,0.68,0.351,0.454,0.479
UMC-11,0.891,0.679,0.736,0.646,0.349,0.318,0.349,0.302,0.612,0.461,0.499,0.457,0.177,0.21,0.206,0.196,0.349,0.333,0.308,0.354
